In US20160291027A1, “METHODS FOR […] ABILITY OF A Z[…] COMPOUND TO TREAT CANCER” (Eisai R&D Management Co., Ltd., priority 2007, published 2016):

Test system: cell lines which carried a BRAF V600E mutation
Experiment: Cell growth assay (CellTiter-Glo or methylene blue) in solid cancer cell lines
Format: cell-based
Details: 96 hours, 0.3-10000 nM
Experimental: In a separate experiment, Compounds 091 and 106 were tested in solid cancer cell lines from different tissue types (shown in FIG. 3B for 21 cell lines for compound 091 and 19 cell lines for compound 106). All cell lines were introduced into 96-well plates and grown in the absence or continuous presence of 0.3-10000 nM of either compound 091 or compound 106 for 96 hours. Cell growth was assessed using a CellTiter-Glo® Luminescent Cell Viability Assay (Promega) or a methylene blue assay. IC50 values were determined as the concentration of a substance which inhibits cell growth by 50% compared to untreated cell populations.

CNc1cc(O)c2c(c1)/C=C/C[C@H](O)[C@H](O)C(=O)/C=C\[C@@H](C)[C@H](C)OC2=O [Compound 091]
Sensitivity of BRAF V600E cell lines (concentration range): low-nM or sub-μM concentration range
